From US7291641B2, “Derivatives of heterocycles with 5 members, their preparation and their use as medicaments” (Societe de Conseils de Recherches et d'Applications …, priority 1999, dated 2007)

| SMILES | melting point [°C] |
| --- | --- |
| CC(C)CCCOC(=O)NCCc1nc(-c2ccc(-c3ccccc3)cc2)c[nH]1 [Example 378, 4-methylpentyl 2-[4-(1,1′-biphenyl-4-yl)-1H-imidazol-2-yl]ethylcarbamate] | 128.3 |
| CC(C)(C)CCOC(=O)NCCc1nc(-c2ccc(N3CCCC3)cc2)c[nH]1 [Example 379, 3,3-dimethylbutyl 2-[4-(4-pyrrolidin-1-ylphenyl)-1H-imidazol-2-yl]ethylcarbamate] | 119.2 |
| CCCCCCOC(=O)NCCc1nc(-c2ccc(-c3ccc(Br)cc3)cc2)c[nH]1 [Example 381, hexyl 2-[4-(4′-bromo-1,1′-biphenyl-4-yl)-1H-imidazol-2-yl]ethylcarbamate] | 138 to 140 |
| O=C(NCCc1nc(-c2ccc(N3CCCC3)cc2)c[nH]1)OCCCC(F)(F)F [Example 385, 4,4,4-trifluorobutyl 2-[4-(4-pyrrolidin-1-ylphenyl)-1H-imidazol-2-yl]ethylcarbamate] | 148.3 |
| CCCCCCOC(=O)NCCc1nc(-c2cc(C(C)(C)C)c(O)c(C(C)(C)C)c2)c[nH]1 [Example 386, hexyl 2-[4-(3,5-ditert-butyl-4-hydroxyphenyl)-1H-imidazol-2-yl]ethylcarbamate] | 197.4 |
| O=C(NCCc1nc(-c2ccc(-c3ccccc3)cc2)c[nH]1)OCCc1ccccc1 [Example 391, 2-phenylethyl 2-[4-(1,1′-biphenyl-4-yl)-1H-imidazol-2-yl]ethylcarbamate] | 142 to 143 |
| CCCCOC(=O)NCCc1nc(-c2ccc(-c3ccc(F)cc3)cc2)c[nH]1 [Example 392, butyl 2-[4-(4′-fluoro-1,1′-biphenyl-4-yl)-1H-imidazol-2-yl]ethylcarbamate] | 149.3 |
| CCCCOC(=O)NCCc1nc(-c2ccc(-c3ccccc3)cc2)c(C)[nH]1 [Example 393, butyl 2-[4-(1,1′-biphenyl-4-yl)-5-methyl-1H-imidazol-2-yl]ethylcarbamate] | 143 to 144 |
| CCCCOC(=O)NCCc1nc(-c2ccc(-c3ccc(C)cc3)cc2)c[nH]1 [Example 394, butyl 2-[4-(4′-methyl-1,1′-biphenyl-4-yl)-1H-imidazol-2-yl]ethylcarbamate] | 168.4 |

Results, then the compound that gave them:

| melting point [°C] | SMILES |
| --- | --- |
| 128 to 130 | CC(C)CCOC(=O)NCCc1nc(-c2ccc(-c3ccccc3)cc2)c[nH]1 [Example 380, isopentyl 2-[4-(1,1′-biphenyl-4-yl)-1H-imidazol-2-yl]ethylcarbamate] |
| 173 | CC(C)(C)c1ccc(-c2c[nH]c(CCNC(=O)OCc3ccccc3)n2)cc1 [Example 382, benzyl 2-[4-(4-tert-butylphenyl)-1H-imidazol-2-yl]ethylcarbamate] |
| 98.4 | CC(C)(C)CCOC(=O)NCCc1nc(-c2ccc(-c3ccccc3)cc2)c[nH]1 [Example 383, 3,3-dimethylbutyl 2-[4-(1,1′-biphenyl-4-yl)-1H-imidazol-2-yl]ethylcarbamate] |
| 110 to 114 | CCCCCCOC(=O)NCCc1nc(-c2ccc(N3CCCC3)cc2)c[nH]1 [Example 384, hexyl 2-[4-(4-pyrrolidin-1-ylphenyl)-1H-imidazol-2-yl]ethylcarbamate] |
| 116.8 | COc1ccc(-c2c[nH]c(CCNC(=O)OCCC(C)(C)C)n2)cc1 [Example 388, 3,3-dimethylbutyl 2-[4-(4-methoxyphenyl)-1H-imidazol-2-yl]ethylcarbamate] |
| 177.5 | CC(C)(C)c1cc(-c2c[nH]c(CCNC(=O)OCc3ccccc3)n2)cc(C(C)(C)C)c1O [Example 389, benzyl 2-[4-(3,5-ditert-butyl-4-hydroxyphenyl)-1H-imidazol-2-yl]ethylcarbamate] |
| 122.4 | O=C(NCCc1nc(-c2ccc(N3CCCC3)cc2)c[nH]1)OCc1ccccc1 [Example 390, benzyl 2-[4-(4-pyrrolidin-1-ylphenyl)-1H-imidazol-2-yl]ethylcarbamate] |
